Reference: the kinase profiling compilation of Christmann-Franck et al. (2016)

Columns and labels:
Assay in all cases: radiometric filter-binding kinase assay, Kinase HotSpot
Conditions in all cases: compound 0.5 µM; ATP 10 µM
ADRBK2 (human) = ADRBK2 (human) (UniProt P35626)
BTK (human) = BTK (human) (UniProt Q06187)
CDK4 CCND3 (human) = CDK4 CCND3 (human) (UniProt P30281+P11802)
CHEK1 (human) = CHEK1 (human) (UniProt O14757)
FGFR4 (human) = FGFR4 (human) (UniProt P22455)
GRK4 (human) = GRK4 (human) (UniProt P32298)
GRK7 (human) = GRK7 (human) (UniProt Q8WTQ7)
HCK (human) = HCK (human) (UniProt P08631)
INSR (human) = INSR (human) (UniProt P06213)
IRAK4 (human) = IRAK4 (human) (UniProt Q9NWZ3)
ITK (human) = ITK (human) (UniProt Q08881)
MAP2K1 (human) = MAP2K1 (human) (UniProt Q02750)
MAP3K5 (human) = MAP3K5 (human) (UniProt Q99683)
MAP3K8 (human) = MAP3K8 (human) (UniProt P41279)
MAPK10 (human) = MAPK10 (human) (UniProt P53779)
MAPKAPK3 (human) = MAPKAPK3 (human) (UniProt Q16644)
MARK4 (human) = MARK4 (human) (UniProt Q96L34)
NEK11 (human) = NEK11 (human) (UniProt Q8NG66)
NEK2 (human) = NEK2 (human) (UniProt P51955)
NEK3 (human) = NEK3 (human) (UniProt P51956)
NEK6 (human) = NEK6 (human) (UniProt Q9HC98)
OXSR1 (human) = OXSR1 (human) (UniProt O95747)
PASK (human) = PASK (human) (UniProt Q96RG2)
PBK (human) = PBK (human) (UniProt Q96KB5)
PIM2 (human) = PIM2 (human) (UniProt Q9P1W9)
PIM3 (human) = PIM3 (human) (UniProt Q86V86)
PLK1 (human) = PLK1 (human) (UniProt P53350)
PRKCA (human) = PRKCA (human) (UniProt P17252)
PRKD1 (human) = PRKD1 (human) (UniProt Q15139)
RPS6KA1 KD1 KD2 (human) = RPS6KA1 KD1 KD2 (human) (UniProt Q15418)
RPS6KB1 (human) = RPS6KB1 (human) (UniProt P23443)
SIK2 (human) = SIK2 (human) (UniProt Q9H0K1)
TAOK1 (human) = TAOK1 (human) (UniProt Q7L7X3)
TGFBR1 (human) = TGFBR1 (human) (UniProt P36897)
TGFBR2 (human) = TGFBR2 (human) (UniProt P37173)
TNK2 (human) = TNK2 (human) (UniProt Q07912)
TXK (human) = TXK (human) (UniProt P42681)
[1] = molecular target: TYK2 JH1 catalytic (human) (UniProt P29597)
TYRO3 (human) = TYRO3 (human) (UniProt Q06418)
YES1 (human) = YES1 (human) (UniProt P07947)

Sequence of MAP3K8 (human) (P41279 whole entry, looked up): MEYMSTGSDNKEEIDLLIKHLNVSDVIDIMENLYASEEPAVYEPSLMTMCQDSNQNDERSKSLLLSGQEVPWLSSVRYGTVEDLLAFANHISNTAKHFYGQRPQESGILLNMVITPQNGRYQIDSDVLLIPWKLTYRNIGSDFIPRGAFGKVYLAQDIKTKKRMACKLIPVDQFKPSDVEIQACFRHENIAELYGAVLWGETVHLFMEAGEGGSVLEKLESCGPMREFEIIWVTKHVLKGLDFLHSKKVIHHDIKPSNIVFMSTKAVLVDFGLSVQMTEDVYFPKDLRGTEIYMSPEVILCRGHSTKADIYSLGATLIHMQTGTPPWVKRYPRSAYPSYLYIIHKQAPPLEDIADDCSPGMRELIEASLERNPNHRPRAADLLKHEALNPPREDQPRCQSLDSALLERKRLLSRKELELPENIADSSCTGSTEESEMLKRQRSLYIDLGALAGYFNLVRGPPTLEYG
Sequence of IRAK4 (human) (Q9NWZ3 whole entry, looked up): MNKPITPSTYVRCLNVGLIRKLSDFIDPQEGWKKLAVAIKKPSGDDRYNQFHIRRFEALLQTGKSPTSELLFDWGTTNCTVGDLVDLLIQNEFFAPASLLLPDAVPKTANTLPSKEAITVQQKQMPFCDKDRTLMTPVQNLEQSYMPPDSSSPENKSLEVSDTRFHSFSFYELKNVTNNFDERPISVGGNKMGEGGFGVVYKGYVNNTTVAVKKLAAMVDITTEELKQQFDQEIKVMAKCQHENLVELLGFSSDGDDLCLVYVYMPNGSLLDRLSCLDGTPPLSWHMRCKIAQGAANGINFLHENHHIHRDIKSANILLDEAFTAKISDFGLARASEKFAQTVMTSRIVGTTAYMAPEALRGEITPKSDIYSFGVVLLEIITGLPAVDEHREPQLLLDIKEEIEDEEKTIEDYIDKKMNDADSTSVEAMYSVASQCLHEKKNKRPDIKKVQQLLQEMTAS
Sequence of CHEK1 (human) (O14757 whole entry, looked up): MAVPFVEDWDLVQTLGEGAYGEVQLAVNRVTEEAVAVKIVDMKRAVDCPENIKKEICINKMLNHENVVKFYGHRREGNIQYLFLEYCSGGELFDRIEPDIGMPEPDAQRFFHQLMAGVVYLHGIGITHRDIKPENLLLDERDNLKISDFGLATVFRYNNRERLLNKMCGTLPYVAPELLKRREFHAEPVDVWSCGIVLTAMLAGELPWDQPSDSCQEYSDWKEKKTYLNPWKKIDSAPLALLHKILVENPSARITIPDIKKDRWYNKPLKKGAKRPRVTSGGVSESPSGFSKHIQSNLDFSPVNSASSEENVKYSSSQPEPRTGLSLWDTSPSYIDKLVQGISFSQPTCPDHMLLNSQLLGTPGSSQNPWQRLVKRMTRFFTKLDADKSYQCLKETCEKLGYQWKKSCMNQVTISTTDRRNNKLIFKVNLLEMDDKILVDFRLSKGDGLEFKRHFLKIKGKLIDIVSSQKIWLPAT
Sequence of TYK2 JH1 catalytic (human) (P29597 whole entry, looked up): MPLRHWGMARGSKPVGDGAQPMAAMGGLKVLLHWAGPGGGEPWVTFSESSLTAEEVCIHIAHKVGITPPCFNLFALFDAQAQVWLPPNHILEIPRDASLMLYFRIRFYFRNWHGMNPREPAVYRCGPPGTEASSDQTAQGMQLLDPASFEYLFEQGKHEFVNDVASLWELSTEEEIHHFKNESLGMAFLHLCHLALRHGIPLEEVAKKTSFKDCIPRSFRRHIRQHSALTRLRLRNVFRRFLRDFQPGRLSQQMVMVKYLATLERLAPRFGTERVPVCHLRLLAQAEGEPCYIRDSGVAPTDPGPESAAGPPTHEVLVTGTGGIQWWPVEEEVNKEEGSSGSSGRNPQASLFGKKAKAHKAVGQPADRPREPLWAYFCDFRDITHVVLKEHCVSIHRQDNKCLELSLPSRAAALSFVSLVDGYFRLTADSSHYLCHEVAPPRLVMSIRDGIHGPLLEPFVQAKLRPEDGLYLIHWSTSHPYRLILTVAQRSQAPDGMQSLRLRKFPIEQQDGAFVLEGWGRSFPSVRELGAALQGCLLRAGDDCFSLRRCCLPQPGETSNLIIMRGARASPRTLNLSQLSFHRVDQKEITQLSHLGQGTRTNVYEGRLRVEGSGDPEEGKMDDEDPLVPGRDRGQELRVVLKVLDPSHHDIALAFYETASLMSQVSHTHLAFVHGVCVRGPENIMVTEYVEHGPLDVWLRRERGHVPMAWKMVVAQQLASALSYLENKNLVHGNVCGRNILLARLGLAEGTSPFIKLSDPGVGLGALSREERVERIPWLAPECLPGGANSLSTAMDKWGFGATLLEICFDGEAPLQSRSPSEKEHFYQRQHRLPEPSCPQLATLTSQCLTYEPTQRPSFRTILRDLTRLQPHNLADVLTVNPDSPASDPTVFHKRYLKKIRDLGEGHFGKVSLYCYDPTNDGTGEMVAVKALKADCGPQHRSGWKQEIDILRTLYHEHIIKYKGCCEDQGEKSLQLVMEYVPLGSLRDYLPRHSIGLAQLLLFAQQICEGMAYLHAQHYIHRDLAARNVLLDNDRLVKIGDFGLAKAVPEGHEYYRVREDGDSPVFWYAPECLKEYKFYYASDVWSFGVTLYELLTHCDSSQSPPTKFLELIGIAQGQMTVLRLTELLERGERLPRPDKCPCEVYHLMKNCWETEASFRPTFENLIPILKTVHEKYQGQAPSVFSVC
Sequence of NEK6 (human) (Q9HC98 whole entry, looked up): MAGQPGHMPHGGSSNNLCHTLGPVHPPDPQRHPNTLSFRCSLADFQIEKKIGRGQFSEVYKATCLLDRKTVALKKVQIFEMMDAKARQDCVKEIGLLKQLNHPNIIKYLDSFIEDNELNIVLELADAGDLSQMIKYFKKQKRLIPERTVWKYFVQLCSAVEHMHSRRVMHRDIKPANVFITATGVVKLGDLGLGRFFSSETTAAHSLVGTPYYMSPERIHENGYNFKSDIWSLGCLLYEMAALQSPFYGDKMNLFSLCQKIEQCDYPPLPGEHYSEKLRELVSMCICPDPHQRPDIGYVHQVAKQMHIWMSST
Sequence of ITK (human) (Q08881 whole entry, looked up): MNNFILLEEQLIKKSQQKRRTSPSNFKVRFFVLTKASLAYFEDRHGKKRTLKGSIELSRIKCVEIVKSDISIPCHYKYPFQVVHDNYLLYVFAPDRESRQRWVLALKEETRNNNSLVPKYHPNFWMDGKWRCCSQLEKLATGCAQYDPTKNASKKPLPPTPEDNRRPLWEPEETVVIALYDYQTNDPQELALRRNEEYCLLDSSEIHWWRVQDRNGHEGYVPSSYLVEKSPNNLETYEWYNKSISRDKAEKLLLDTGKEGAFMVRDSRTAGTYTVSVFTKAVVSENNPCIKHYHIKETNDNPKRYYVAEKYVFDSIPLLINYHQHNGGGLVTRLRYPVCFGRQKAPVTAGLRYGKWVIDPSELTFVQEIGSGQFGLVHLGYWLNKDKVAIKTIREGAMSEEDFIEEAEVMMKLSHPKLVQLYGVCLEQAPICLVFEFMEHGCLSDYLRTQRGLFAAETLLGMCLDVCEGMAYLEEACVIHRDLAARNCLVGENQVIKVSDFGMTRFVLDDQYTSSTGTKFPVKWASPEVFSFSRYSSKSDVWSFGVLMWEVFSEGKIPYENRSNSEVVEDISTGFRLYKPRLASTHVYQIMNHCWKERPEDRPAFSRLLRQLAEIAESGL
Sequence of TNK2 (human) (Q07912 whole entry, looked up): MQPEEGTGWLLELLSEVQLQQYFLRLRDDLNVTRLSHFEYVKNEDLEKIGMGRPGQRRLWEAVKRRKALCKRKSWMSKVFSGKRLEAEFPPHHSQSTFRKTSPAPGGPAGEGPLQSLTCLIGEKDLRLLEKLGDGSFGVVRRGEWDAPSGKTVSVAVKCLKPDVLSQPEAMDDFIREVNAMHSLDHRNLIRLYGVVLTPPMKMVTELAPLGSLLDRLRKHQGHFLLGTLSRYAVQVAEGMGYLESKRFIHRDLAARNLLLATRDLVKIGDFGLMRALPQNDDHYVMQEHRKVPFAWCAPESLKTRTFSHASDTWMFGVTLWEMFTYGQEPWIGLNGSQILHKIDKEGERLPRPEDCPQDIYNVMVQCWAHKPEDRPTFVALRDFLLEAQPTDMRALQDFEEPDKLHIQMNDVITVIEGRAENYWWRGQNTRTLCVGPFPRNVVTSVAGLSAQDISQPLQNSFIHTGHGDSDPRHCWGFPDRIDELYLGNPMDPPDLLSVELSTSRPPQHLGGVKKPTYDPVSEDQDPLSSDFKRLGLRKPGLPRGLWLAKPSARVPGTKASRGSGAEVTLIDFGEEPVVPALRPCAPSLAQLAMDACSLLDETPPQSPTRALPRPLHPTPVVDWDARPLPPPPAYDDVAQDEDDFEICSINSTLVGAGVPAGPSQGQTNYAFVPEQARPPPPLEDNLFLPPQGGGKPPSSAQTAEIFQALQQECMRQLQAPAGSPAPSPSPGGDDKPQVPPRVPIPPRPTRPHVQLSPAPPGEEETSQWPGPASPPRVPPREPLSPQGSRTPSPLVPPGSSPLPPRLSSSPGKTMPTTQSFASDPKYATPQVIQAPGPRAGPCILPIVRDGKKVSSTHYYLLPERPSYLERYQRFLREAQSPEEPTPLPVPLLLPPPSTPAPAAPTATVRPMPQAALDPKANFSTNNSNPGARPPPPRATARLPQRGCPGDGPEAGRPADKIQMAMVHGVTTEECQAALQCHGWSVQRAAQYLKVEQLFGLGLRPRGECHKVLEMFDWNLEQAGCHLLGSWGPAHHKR

| Compound | residual activity (ADRBK2 (human)) [%] | residual activity (BTK (human)) [%] | residual activity (CDK4 CCND3 (human)) [%] | residual activity (FGFR4 (human)) [%] | residual activity (GRK4 (human)) [%] | residual activity (GRK7 (human)) [%] | residual activity (INSR (human)) [%] | residual activity (IRAK4 (human)) [%] | residual activity (ITK (human)) [%] | residual activity (MAP2K1 (human)) [%] | residual activity (MAP3K5 (human)) [%] | residual activity (MAP3K8 (human)) [%] | residual activity (MAPK10 (human)) [%] | residual activity (MAPKAPK3 (human)) [%] | residual activity (MARK4 (human)) [%] | residual activity (NEK11 (human)) [%] | residual activity (NEK2 (human)) [%] | residual activity (NEK6 (human)) [%] | residual activity (PASK (human)) [%] | residual activity (PBK (human)) [%] | also measured |
| --- | --- | --- | --- | --- | --- | --- | --- | --- | --- | --- | --- | --- | --- | --- | --- | --- | --- | --- | --- | --- | --- |
| CC#CC(=O)Nc1cc2c(Nc3ccc(F)c(Cl)c3)ncnc2cn1 | 103 | 2.88 | 105 | 102 | 104 | 106 | 99.6 | 102 | 76.3 | 95.3 | 98.9 | 94.2 | 85.4 | 105 | 101 | 86.6 | 103 | 97.5 | 101 | 99.9 | residual activity (CHEK1 (human)): 106%; residual activity (HCK (human)): 92.2%; residual activity (NEK3 (human)): 76.2%; residual activity (OXSR1 (human)): 109%; residual activity (PIM2 (human)): 111%; residual activity (PIM3 (human)): 89.1%; residual activity (PLK1 (human)): 99.3%; residual activity (PRKCA (human)): 101%; residual activity (PRKD1 (human)): 98.7%; residual activity (RPS6KA1 KD1 KD2 (human)): 95.1%; residual activity (RPS6KB1 (human)): 97.1%; residual activity (SIK2 (human)): 81.3%; residual activity (TAOK1 (human)): 104%; residual activity (TGFBR1 (human)): 98.7%; residual activity (TGFBR2 (human)): 123%; residual activity (TNK2 (human)): 95.1%; residual activity (TXK (human)): 1.66%; residual activity [1]: 106%; residual activity (TYRO3 (human)): 100%; residual activity (YES1 (human)): 82.3% |
| CC(=O)c1ccc(N2CCOCC2)cc1O | 89.1 | 108 | 96.4 | 108 | 106 | 100 | 94 | 120 | 97 | 95.2 | 99.4 | 99.4 | 78.4 | 105 | 99.4 | 98.6 | 81.3 | 96.5 | 95 | 113 | residual activity (CHEK1 (human)): 103%; residual activity (HCK (human)): 116%; residual activity (NEK3 (human)): 103%; residual activity (OXSR1 (human)): 115%; residual activity (PIM2 (human)): 117%; residual activity (PIM3 (human)): 115%; residual activity (PLK1 (human)): 94.3%; residual activity (PRKCA (human)): 73.4%; residual activity (PRKD1 (human)): 102%; residual activity (RPS6KA1 KD1 KD2 (human)): 92.4%; residual activity (RPS6KB1 (human)): 95.2%; residual activity (SIK2 (human)): 87%; residual activity (TAOK1 (human)): 99.4%; residual activity (TGFBR1 (human)): 96.6%; residual activity (TGFBR2 (human)): 132%; residual activity (TNK2 (human)): 101%; residual activity (TXK (human)): 103%; residual activity [1]: 110%; residual activity (TYRO3 (human)): 89.1%; residual activity (YES1 (human)): 100% |
| O=S(=O)(c1cccc2cnccc12)N1CCCNCC1 | 100 | 96.5 | 98.5 | 82.8 | 104 | 114 | 95 | 108 | 90.7 | 83 | 88.7 | 91.8 | 85.3 | 99.7 | 103 | 114 | 92.3 | 97.6 | 97.1 | 100 | residual activity (HCK (human)): 95.9%; residual activity (PIM2 (human)): 93.2%; residual activity (PIM3 (human)): 91.4%; residual activity (PLK1 (human)): 103%; residual activity (PRKCA (human)): 94.8%; residual activity (PRKD1 (human)): 65.1%; residual activity (RPS6KA1 KD1 KD2 (human)): 89.2%; residual activity (RPS6KB1 (human)): 76.6%; residual activity (SIK2 (human)): 97.7%; residual activity (TAOK1 (human)): 123%; residual activity (TGFBR1 (human)): 98.4%; residual activity (TGFBR2 (human)): 97%; residual activity (TNK2 (human)): 89.4%; residual activity (TXK (human)): 84.1%; residual activity [1]: 81.6%; residual activity (TYRO3 (human)): 87.9%; residual activity (YES1 (human)): 96.5% |
| COc1ccc(COc2ccc(Cc3cnc(N)nc3N)cc2OC)cc1 | 103 | 104 | 107 | 99.7 | 106 | 104 | 97 | 110 | 98.1 | 98.6 | 89 | 98.4 | 84.4 | 96 | 89.7 | 103 | 99.2 | 99.4 | 103 | 99.4 | residual activity (CHEK1 (human)): 107%; residual activity (NEK3 (human)): 98.1%; residual activity (OXSR1 (human)): 103%; residual activity (PIM2 (human)): 107%; residual activity (PIM3 (human)): 95.9%; residual activity (PLK1 (human)): 97.1%; residual activity (PRKCA (human)): 95.9%; residual activity (PRKD1 (human)): 95.2%; residual activity (RPS6KA1 KD1 KD2 (human)): 92.7%; residual activity (RPS6KB1 (human)): 89.5%; residual activity (SIK2 (human)): 98.6%; residual activity (TAOK1 (human)): 110%; residual activity (TGFBR1 (human)): 97%; residual activity (TGFBR2 (human)): 127%; residual activity (TNK2 (human)): 105%; residual activity (TXK (human)): 101%; residual activity [1]: 97.6%; residual activity (TYRO3 (human)): 110%; residual activity (YES1 (human)): 94.8% |
| COc1ccc2c(c[n+](C)c3c4cc5c(cc4ccc23)OCO5)c1OC | 88.4 | 98.6 | 98.8 | 90.1 | 94.8 | 101 | 94.9 | 116 | 99.2 | 97.8 | 114 | 91.3 | 100 | 83 | 99.3 | 106 | 98.6 | 104 | 91.1 | 102 | residual activity (CHEK1 (human)): 94.4%; residual activity (NEK3 (human)): 95.1%; residual activity (OXSR1 (human)): 94.8%; residual activity (PIM2 (human)): 105%; residual activity (PIM3 (human)): 99.6%; residual activity (PLK1 (human)): 93.6%; residual activity (PRKCA (human)): 78.9%; residual activity (PRKD1 (human)): 100%; residual activity (RPS6KA1 KD1 KD2 (human)): 104%; residual activity (RPS6KB1 (human)): 99.8%; residual activity (SIK2 (human)): 95.5%; residual activity (TAOK1 (human)): 105%; residual activity (TGFBR1 (human)): 98.5%; residual activity (TGFBR2 (human)): 71.6%; residual activity (TNK2 (human)): 101%; residual activity (TXK (human)): 100%; residual activity [1]: 108%; residual activity (TYRO3 (human)): 95.7%; residual activity (YES1 (human)): 93.8% |
